Experiments:
Erysiphe cichoracearum = test: Cucumber powdery mildew control on sprayed cucumber seedlings (Example 80); type: in vivo; settings: Golovinomyces cichoracearum, 168 h, 100 ppm spray, day before inoculation
Rhizoctonia solani = test: Rice sheath blight control on sprayed rice seedlings (Example 87); type: in vivo; settings: Rhizoctonia solani, 168 h, 100 ppm spray, day before inoculation
Method in brief: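 Disease ratings followed 7 days' growth-room incubation of seedlings given a bran/R. solani mycelium inoculum. Inoculation took place one day after spraying to run-off. The spray was a 100 ppm compound suspension in water containing 6% acetone and 250 ppm TREM 014.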

Venturia inaequalis = test: Apple scab control on sprayed apple seedlings (Example 82); type: in vivo; settings: Venturia inaequalis, 100 ppm spray, day before inoculation
Cercospora arachidicola = test: Peanut early leafspot control on sprayed peanut seedlings (Example 84); type: in vivo; settings: Mycosphaerella arachidis, 360 h, 100 ppm spray, day before inoculation; read-out: % Control Peanut Easly Leafspot
Monilinia fructicola = test: Stone fruit brown rot control on dipped canned peach halves (Example 86); settings: 120 h, 100 ppm dip, percent growth inhibition of colonies after five days
Source text: Several compounds of the previous examples were again dissolved in acetone in an amount equal to 5% of the final volume and then suspended at a concentration of 100 ppm in purified water containing 700 ppm of the surfactant TREM 014 (polyhydric alcohol esters). Canned peach halves were dipped in this suspension for three minutes and then placed to air dry in sterile containers. Upon drying, the peach halves were inoculated with two pieces of Monilinia fructicola mycelium, causal agent of stone fruit brown rot, and incubated in the sterile containers for five days. At that time the radii of the colonies' growth were measured on each peach. […] Percent disease control (percent growth inhibition of colonies on treated peaches as compared to that of colonies on untreated peaches) is expressed in the table below.

Helminthosporium maydis = test: Southern corn leaf blight control on sprayed corn seedlings (Example 83); type: in vivo; settings: Bipolaris maydis, 192 h, 100 ppm spray, day before inoculation
Method in brief: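 Corn seedlings were sprayed to run-off with 100 ppm suspensions (6% acetone, 250 ppm TREM 014) and spore-inoculated the following day. Disease and growth reduction were rated after 24 h saturated humidity at 20° plus 7 days in a growth room.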

[1] = system: Puccinia recondita var. tritici; test: Wheat leaf rust control on sprayed wheat seedlings (Example 79); type: in vivo; settings: Puccinia recondita, 168 h; 100 ppm spray, day before inoculation
Method in brief: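 Disease was scored as leaf rust pustules 7 days after a 24 h, 20° saturated-humidity incubation of seedlings inoculated with P. recondita var. tritici spores. Inoculation followed by one day a run-off spray of 100 ppm compound in water containing 6% acetone and 250 ppm TREM 014.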

Phytophthora infestans = test: whole plant or invertebrate; type: in vivo; settings: Phytophthora infestans, in Solanum lycopersicum, 168 h, read-out: % Control of Tomato Late Blight, 100 ppm spray, day before inoculation
Pyricularia oryzae = test: whole plant or invertebrate; type: in vivo; settings: Pyricularia oryzae, 168 h, read-out: % Control of Rice Blast, 100 ppm spray, day before inoculation
Pythium aphanadermatum [2] = test: Pythium control on cotton, seed coating (Example 91); type: in vivo; settings: 168 h, 2 gm/kg seed
Source text: Several compounds of the previous examples were incorporated into a proprietary formulation and used to coat cotton seeds at a rate of 2 gm/kg seed. After being thoroughly coated, the seeds were allowed to air dry at room temperature. The cotton seeds were then planted into soil amended with the fungus Pythium aphanadermatum, sand, and corn meal at a rate sufficient to kill most untreated seeds. The seeds were held at room temperature for 1 week, after which time disease ratings were made.

Pythium aphanadermatum [3] = test: Pythium control on corn, seed coating (Example 92); type: in vivo; settings: 504 h, 2 gm/kg seed
Experimental: Several compounds of the previous examples were incorporated into a proprietary formulation and used to coat corn seeds at a rate of 2 gm/kg seed. After being thoroughly coated, the seeds were allowed to air dry at room temperature. The seeds were then planted into soil amended with a mixture of the fungus Pythium aphanadermatum, sand, and corn meal at a rate sufficient to kill most untreated seeds. The seeds were held at 49° F. for 2 weeks and then at 70° F. for 1 additional week. After this time disease ratings were made.

Erysiphe graminis = test: Barley powdery mildew control on sprayed barley seedlings (Example 81); type: in vivo; settings: Blumeria graminis, 168 h; 100 ppm spray, day before inoculation
Experimental: The compounds of the previous examples were again dissolved in acetone in an amount equal to 6% of the final volume and then suspended at a concentration of 100 ppm in purified water containing 250 ppm of the surfactant TREM 014 (polyhydric alcohol esters). These suspensions were sprayed to the point of run-off on barley seedlings. The following day, the plants were inoculated with a spore suspension of the fungus Erysiphe graminis, causal agent of barley powdery mildew, and incubated in growth room for 7 days. Disease ratings were then made. Treated plants from successful treatments had little or no powdery mildew in contrast to untreated plants which were covered with powdery mildew.

cucumber seedlings = test: Phytotoxicity on cucumber seedlings (Example 80); type: in vivo; parameters: key: G = growth reduction; H = hormonal effects; settings: 100 ppm spray
Experimental: The compounds of the previous example were again dissolved in acetone in an amount equal to 6% of the final volume and then suspended at a concentration of 100 ppm in purified water containing 250 ppm of the surfactant TREM 014 (polyhydric alcohol esters). These suspensions were sprayed to the point of run-off, on cucumber seedlings. The following day, the plants were inoculated with a spore suspension of the fungus Erysiphe cichoracearum, causal agent of cucumber powdery mildew, and incubated in a growth room for 7 days. Disease ratings were then made. Treated plants from successful treatments had little or no powdery mildew in contrast to untreated plants which were covered with powdery mildew. Phytotoxicity in the form of growth reduction or hormonal effects was observed on some of the plants in association with disease control.

Structure (SMILES) | pest or weed control at 100 ppm (Erysiphe cichoracearum) [%] | pest or weed control at 100 ppm (Rhizoctonia solani) [%] | pest or weed control at 100 ppm (Venturia inaequalis) [%] | pest or weed control at 100 ppm (Cercospora arachidicola) [%] | inhibition of growth at 100 µg/mL (Monilinia fructicola) [%] | pest or weed control at 100 ppm (Helminthosporium maydis) [%] | pest or weed control at 100 ppm [1] [%] | pest or weed control at 100 ppm (Phytophthora infestans) [%] | pest or weed control at 100 ppm (Pyricularia oryzae) [%] | pest or weed control at 2 g/kg seed (Pythium aphanadermatum [2]) [%] | pest or weed control at 2 g/kg seed (Pythium aphanadermatum [3]) [%] | pest or weed control at 100 ppm (Erysiphe graminis) [%] | Phytotoxicity on cucumber (cucumber seedlings)
CCCC[Si](C)(Cn1cncn1)c1ccc(-c2ccccc2)cc1 (centres unmarked) [(1,1'-Biphenyl-4-yl)butyl(methyl)(1H-1,2,4-triazol-1-ylmethyl)silane] | 100 | 80 | 80 | 100 | 0 | 50 | 90 | 0 | 100 |  |  |  | 
C[Si](C)(Cn1cncn1)c1ccc(-c2ccccc2)cc1 [(1,1'-Biphenyl-4-yl)dimethyl(1H-1,2,4-triazol-1-ylmethyl)silane] | 100 |  | 100 | 100 | 100 | 90 | 100 |  |  | 12 | 30 |  | 
C[Si](C)(Cn1cnnc1)c1ccc(-c2ccccc2)cc1 [(1,1'-Biphenyl-4-yl)dimethyl(4H-1,2,4-triazol-4-ylmethyl)silane] | 90 | 0 | 80 | 0 | 96 | 100 | 0 | 0 | 0 |  |  | 0 | 
C[Si](Cn1cncn1)(c1ccccc1)c1ccc(-c2ccccc2)cc1 (centres unmarked) [(1,1'-Biphenyl-4-yl)methyl(phenyl)(1H-1,2,4-triazol-1-ylmethyl)silane] | 100 | 0 | 100 | 100 |  | 90 | 100 | 0 | 0 | 0 | 0 |  | 
c1ccc([Si](Cn2cncn2)(c2ccccc2)c2ccccc2)cc1 [(1H-1,2,4-Triazol-1-ylmethyl)triphenylsilane] | 100 | 0 | 0 | 0 |  | 0 | 0 | 0 | 0 |  |  | 100 | 
CCCC[Si](C)(Cn1cncn1)c1ccc(F)cc1 (centres unmarked) [Butyl(4-fluorophenyl)methyl(1H-1,2,4-triazol-1-ylmethyl)silane] | 100 | 80 | 100 | 0 | 100 | 0 | 0 | 0 | 100 | 0 | 0 |  | 
CCCC[Si](C)(CCCC)Cn1cncn1 [Dibutyl(methyl)(1H-1,2,4-triazol-1-ylmethyl)silane] | 0 | 0 | 0 | 0 | 81 | 0 | 0 | 0 | 80 |  |  |  | 
COc1ccc([Si](C)(C)Cn2cncn2)cc1 [Dimethyl(4-methoxyphenyl)(1H-1,2,4-triazol-1-ylmethyl)silane] | 100 | 0 | 100 | 0 | 97 | 90 | 0 | 0 | 0 | 0 |  | 100 | 
C[Si](C)(Cn1cncn1)c1ccccc1 [Dimethyl(phenyl)(1H-1,2,4-triazol-1-ylmethyl)silane] | 100 |  | 0 | 0 | 89 | 0 | 90 | 0 | 0 | 0 |  |  | 
CC[Si](C)(C)Cn1cncn1 [Ethyldimethyl(1H-1,2,4-triazol-1-ylmethyl)silane] | 100 |  | 0 | 0 |  | 0 | 0 | 0 | 0 | 48 | 13 |  | 
C[Si](Cn1cncn1)(c1ccc(-c2ccccc2)cc1)c1ccc(-c2ccccc2)cc1 [bis(1,1'-Biphenyl-4-yl)(methyl)(1H-1,2,4-triazol-1-ylmethyl)silane] | 100 | 90 | 0 | 80 |  | 0 | 80 | 0 | 100 | 0 |  |  | 
O[Si](Cn1cncn1)(c1ccc(Cl)cc1)c1ccc(Cl)cc1 [bis(4-Chlorophenyl)hydroxy(1H-1,2,4-triazol-1-ylmethyl)silane] | 100 | 0 | 100 | 100 |  | 90 | 90 | 0 | 0 |  |  |  | H
O[Si](Cn1cncn1)(c1ccc(F)cc1)c1ccc(F)cc1 [bis(4-Fluorophenyl)hydroxy(1H-1,2,4-triazol-1-ylmethyl)silane] | 100 | 0 | 100 | 100 |  | 100 | 90 | 0 | 0 |  |  |  | H

Source: US4510136A (priority 1983, dated 1985)
